Measured values as given in article PMC4303209, “A novel phosphatidylinositol 3-kinase (PI3K) inhibitor directs a potent FOXO-dependent, p53-independent cell cycle arrest phenotype characterized by the differential induction of a subset of FOXO-regulated genes” (Breast Cancer Research : BCR, 2014).

System: MCF-7 breast cancer cells
Assay: Microarray gene expression analysis (Agilent whole human genome 4 x 44K; compound vs DMSO, LIMMA log2 fold change)
Format: cell-based

## Oc1cccc(-c2nc(N3CCOCC3)c3oc4ncccc4c3n2)c1 [PI-103]
Gene PDGFRB (5159), apoptosis genes
  PDGFRB log2FC: 0.024
Gene PEG3 (5178), apoptosis genes
  PEG3 log2FC: 0.129
Gene PEG10 (23089), apoptosis genes
  PEG10 log2FC: -0.104
Gene PF4 (5196), apoptosis genes
  PF4 log2FC: -0.033
Gene PHLDA3 (23612), apoptosis genes
  PHLDA3 log2FC: 0.113
Gene PIK3CG (5294), apoptosis genes
  PIK3CG log2FC: -0.004
Gene PKP1 (5317), apoptosis genes
  PKP1 log2FC: 0.031
Gene PLEKHG5 (57449), apoptosis genes
  PLEKHG5 log2FC: 0.199
Gene PLSCR3 (57048), apoptosis genes
  PLSCR3 log2FC: 0.125
Gene POLB (5423), apoptosis genes
  POLB log2FC: -0.249
Gene POLD4 (Gene 57804), cell cycle genes
  log2FC: 0.0256
Gene POR (5447), apoptosis genes
  POR log2FC: 0.107
Gene POU3F4 (5456), apoptosis genes
  POU3F4 log2FC: -0.017
Gene POU4F1, apoptosis genes
  POU4F1 log2FC: 0.019
Gene PPAT (Gene 10606), cell cycle genes
  log2FC: 0.08
Gene PPP1CA (Gene 5499), cell cycle genes
  log2FC: -0.18
Gene PPP2CA (Gene 5515), cell cycle genes
  log2FC: -0.52
Gene PPP2R1A (5518), apoptosis genes
  PPP2R1A log2FC: 0.062
Gene PRAMEF8 (391002), apoptosis genes
  PRAMEF8 log2FC: 0.060
Gene PRAMEF10 (343071), apoptosis genes
  PRAMEF10 log2FC: 0.251
Gene PRKACB (Gene 5567), cell cycle genes
  log2FC: 0.52
Gene PRKAG3 (Gene 53632), cell cycle genes
  log2FC PRKAG3: -0.0237
Gene PRKRA (8575), apoptosis genes
  PRKRA log2FC: -0.093
Gene PRLR (5618), apoptosis genes
  PRLR log2FC: 0.00543
Gene PROC (5624), apoptosis genes
  PROC log2FC: 0.030
Gene PROP1 (5626), apoptosis genes
  PROP1 log2FC: 0.324
Gene PSMA1 (5682), apoptosis genes
  PSMA1 log2FC: -0.030
Gene PSMA2 (Gene 5683), cell cycle genes
  log2FC: 0.17
Gene PSMA3 (Gene 5684), cell cycle genes
  log2FC: 0.14
Gene PSMA5 (5686), apoptosis genes
  PSMA5 log2FC: -0.147
Gene PSMA5 (Gene 5686), cell cycle genes
  log2FC PSMA5: -0.15
Gene PSMA7 (5688), apoptosis genes
  PSMA7 log2FC: -2.082
Gene PSMA7 (Gene 5688), cell cycle genes
  log2FC PSMA7: -2.08
Gene PSMB3 (5691), apoptosis genes
  PSMB3 log2FC: 0.053
Gene PSMB4 (Gene 5692), cell cycle genes
  log2FC: 0.17
Gene PSMB7 (5695), apoptosis genes
  PSMB7 log2FC: -0.149
Gene PSMB7 (Gene 5695), cell cycle genes
  log2FC PSMB7: -0.15
Gene PSMB8 (5696), apoptosis genes
  PSMB8 log2FC: -0.00568
Gene PSMC4 (5704), apoptosis genes
  PSMC4 log2FC: -0.023
Gene PSMC4 (Gene 5704), cell cycle genes
  log2FC PSMC4: -0.0233
Gene PSMD2 (5708), apoptosis genes
  PSMD2 log2FC: 0.00374
Gene PSMD13 (5719), apoptosis genes
  PSMD13 log2FC: -0.172
Gene PSMD14 (Gene 10213), cell cycle genes
  log2FC: 0.15
Gene PSME1 (Gene 5720), cell cycle genes
  log2FC: 0.31
Gene PSME2 (5721), apoptosis genes
  PSME2 log2FC: 0.039
Gene PTTG1 (Gene 9232), cell cycle genes
  log2FC: -0.21
Gene PYCARD (29108), apoptosis genes
  PYCARD log2FC: -0.121
Gene RAB11FIP3 (Gene 9727), cell cycle genes
  log2FC: -0.14
Gene RAD51C (Gene 5889), cell cycle genes
  log2FC RAD51C: -0.24
Gene RAE1 (Gene 8480), cell cycle genes
  log2FC RAE1: -0.15
Gene RAF1 (5894), apoptosis genes
  RAF1 log2FC: -0.081
Gene RALA (Gene 5898), cell cycle genes
  log2FC: 0.34
Gene RALB (Gene 5899), cell cycle genes
  log2FC: 0.08
Gene RAMP2 (10266), apoptosis genes
  RAMP2 log2FC: 0.059
Gene RANGAP1 (Gene 5905), cell cycle genes
  log2FC RANGAP1: -0.09
Gene RAPSN (5913), apoptosis genes
  RAPSN log2FC: -0.146
Gene RARB (5915), apoptosis genes
  RARB log2FC: 0.00425
Gene RASSF6 (166824), apoptosis genes
  RASSF6 log2FC: 0.020
Gene RBBP8 (Gene 5932), cell cycle genes
  log2FC: 0.34
Gene RBL1 (Gene 5933), cell cycle genes
  log2FC: 0.17
Gene RBM7 (Gene 10179), cell cycle genes
  log2FC: 0.23
Gene RCC1 (Gene 1104), cell cycle genes
  log2FC: -0.14
Gene REEP4 (Gene 80346), cell cycle genes
  log2FC REEP4: 0.28
Gene RET (5979), apoptosis genes
  RET log2FC: -0.025
Gene RHOT2 (89941), apoptosis genes
  RHOT2 log2FC: 0.051
Gene RPA2 (Gene 6118), cell cycle genes
  log2FC RPA2: -0.25
Gene RPS3 (6188), apoptosis genes
  RPS3 log2FC: -0.043
Gene RPS6KA2 (6196), apoptosis genes
  RPS6KA2 log2FC: 0.189
Gene RPS6KB1 (Gene 6198), cell cycle genes
  log2FC: 0.25
Gene RRN3 (653390), apoptosis genes
  RRN3 log2FC: 0.004
Gene RSPO1 (Gene 284654), cell cycle genes
  log2FC: -0.11
Gene RYR2 (6262), apoptosis genes
  RYR2 log2FC: -0.075
Gene S100A9 (6280), apoptosis genes
  S100A9 log2FC: 0.057
Gene S100A14 (57402), apoptosis genes
  S100A14 log2FC: 0.033
Gene SART1 (Gene 9092), cell cycle genes
  log2FC: -0.00235
Gene SCIN (85477), apoptosis genes
  SCIN log2FC: -0.013
Gene SEH1L (Gene 81929), cell cycle genes
  log2FC: -0.57
Gene SEMA5A (9037), apoptosis genes
  SEMA5A log2FC: -0.022
